According to patent US4792545A, “Boholmycin antibiotic” (Bristol-Myers Company, priority 1986, dated 1988):
≈ marks a conversion by molar mass, not a printed value. Read-outs that look alike come from different tables or passages of the source.

How the values were obtained:
Mycobacterium 607 D46 = assay: MIC by serial agar dilution; type: cell-based; conditions: Mycobacterium 607 D46, kanamycin resistant strain, medium B: No. 1001 medium
[1] = system: experimental infections produced by S. aureus, E. coli and K. pneumoniae; assay: in vivo activity in mice, Table 5 overall; conditions: i.m.
S. aureus 209P = assay: MIC by serial agar dilution; type: cell-based
P. vulgaris A9436 = assay: MIC by serial agar dilution; type: cell-based; conditions: medium A: Nutrient agar
K. pneumoniae D-11 [2] = assay: MIC by serial agar dilution; type: cell-based
B. anthracis IID-115 = assay: microbe, parasite or virus in culture; type: cell-based
S. marcescens A20019 = assay: MIC by serial agar dilution; type: cell-based
P. aeruginosa A20601 = assay: MIC by serial agar dilution; type: cell-based; conditions: P. aeruginosa A20601, kanamycin resistant strain, medium A: Nutrient agar
K. pneumoniae A9678 = assay: MIC by serial agar dilution; type: cell-based; conditions: medium A: Nutrient agar
K. pneumoniae D-11 [3] = assay: in vivo efficacy in mice against experimental infection; conditions: mice, i.m. just before challenge, K. pneumoniae D-11, 5 days observation
E. coli A20664 = assay: MIC by serial agar dilution; type: cell-based; conditions: E. coli A20664, kanamycin resistant strain, medium A: Nutrient agar
E. cloacae A20364 = assay: MIC by serial agar dilution; type: cell-based; conditions: E. cloacae A20364, kanamycin resistant strain, medium A: Nutrient agar
E. coli NIHJ = assay: MIC by serial agar dilution; type: cell-based; conditions: medium A: Nutrient agar
Mycobacterium 607 D87 = assay: MIC by serial agar dilution; type: cell-based
S. aureus Smith [4] = assay: MIC by serial agar dilution; type: cell-based
E. cloacae A21006 = assay: MIC by serial agar dilution; type: cell-based; conditions: E. cloacae A21006, kanamycin resistant strain, medium A: Nutrient agar
S. marcescens A22302 = assay: MIC by serial agar dilution; type: cell-based
E. coli Juhl [5] = assay: MIC by serial agar dilution; type: cell-based; conditions: medium A: Nutrient agar
P. aeruginosa A9930 = assay: MIC by serial agar dilution; type: cell-based; conditions: medium A: Nutrient agar
E. coli JR35/c600 = assay: MIC by serial agar dilution; type: cell-based
P. mirabilis A9554 = assay: MIC by serial agar dilution; type: cell-based; conditions: medium A: Nutrient agar
S. aureus Smith [6] = assay: in vivo efficacy in mice against experimental infection; conditions: mice, i.m. just before challenge, S. aureus Smith, 5 days observation
E. coli K-12 = assay: MIC by serial agar dilution; type: cell-based
P. aeruginosa A9843A = assay: microbe, parasite or virus in culture; type: cell-based
S. aureus A20239 = assay: MIC by serial agar dilution; type: cell-based
E. coli Juhl [7] = assay: in vivo efficacy in mice against experimental infection
M. luteus PCI-1001 = assay: MIC by serial agar dilution; type: cell-based
Mycobacterium ranae = assay: MIC by serial agar dilution; type: cell-based
M. flavus D-12 = assay: MIC by serial agar dilution; type: cell-based
B. subtilis ATCC6633 = assay: MIC by serial agar dilution; type: cell-based; conditions: medium A: Nutrient agar
Mycobacterium phlei = assay: MIC by serial agar dilution; type: cell-based
E. coli D64 = assay: stimulating growth of streptomycin-dependent E. coli D64 (paper disc); type: cell-based; conditions: for Growth zone vs E. coli D64, hazy growth zone / Growth zone vs E. coli D64: 37° C., 45 hours; for Growth zone vs E. coli D64, hazy growth zone: value in parentheses
Description: The results are shown in Table 4 wherein the term "boholmycin" is used for short in referring to boholmycin dihydrochloride tetrahydrate.

B. subtilis PCI-219 = assay: inhibiting growth of B. subtilis PCI-219 (paper disc); type: cell-based; conditions: for Inhibition zone vs B. subtilis PCI-219: 28° C., 18 hours
Method: Boholmycin dihydrochloride tetrahydrate was tested in comparison with streptomycin, glebomycin, myomycin B and kanamycin in respect to stimulating growth of E. coli D64 and in respect to inhibiting growth of B. subtilis PCI-219. The results are shown in Table 4 wherein the term "boholmycin" is used for short in referring to boholmycin dihydrochloride tetrahydrate.
*^1 8 mm paper disc containing 35 μl of test solution
*^3 Incubation at 28° C. for 18 hours

[8] = Pseudomonas aeruginosa, read-out: MIC
[9] = Escherichia coli, read-out: MIC
[10] = Enterobacter cloacae, read-out: MIC
[11] = Bacillus subtilis, PCI219, 18 h, read-out: Inhibition zone vs B. subtilis PCI-219

CCC(=O)N[C@@H]1C(CO)O[C@H](O[C@@H]([C@H](N)[C@H](O)CO)[C@@H](O)CN)C(O)C1O (stereo partly drawn) [sorbistin A1]
MIC (Mycobacterium 607 D46): 100 µg/mL (≈ 252 µM)
in vivo activity compared with streptomycin and kanamycin [1]: much less active than streptomycin and kanamycin
MIC (S. aureus 209P; S. aureus 209P, medium A: Nutrient agar): 50 µg/mL (≈ 126 µM)
MIC (P. vulgaris A9436): 50 µg/mL (≈ 126 µM)
MIC (K. pneumoniae D-11 [2]; medium A: Nutrient agar): 6.3 µg/mL (≈ 15.9 µM)
MIC (B. anthracis IID-115; B. anthracis IID-115, medium A: Nutrient agar): 50 µg/mL (≈ 126 µM)
MIC (S. marcescens A20019; S. marcescens A20019, medium A: Nutrient agar): > 200 µg/mL
MIC (P. aeruginosa A20601): 3.1 µg/mL (≈ 7.8 µM)
MIC (K. pneumoniae A9678): 100 µg/mL (≈ 252 µM)
PD50 (K. pneumoniae D-11 [3]): 75 mg/kg
MIC (E. coli A20664): 25 µg/mL (≈ 62.9 µM)
MIC (E. cloacae A20364): 50 µg/mL (≈ 126 µM)
MIC (E. coli NIHJ): 25 µg/mL (≈ 62.9 µM)
MIC (Mycobacterium 607 D87; Mycobacterium 607 D87, medium B: No. 1001 medium): 50 µg/mL (≈ 126 µM)
MIC (S. aureus Smith [4]; S. aureus Smith, medium A: Nutrient agar): 50 µg/mL (≈ 126 µM)
MIC (E. cloacae A21006): 50 µg/mL (≈ 126 µM)
MIC (S. marcescens A22302; S. marcescens A22302, kanamycin resistant strain, medium A: Nutrient agar): 400 µg/mL (≈ 1010 µM)
MIC (E. coli Juhl [5]): 50 µg/mL (≈ 126 µM)
MIC (P. aeruginosa A9930): 12.5 µg/mL (≈ 31.5 µM)
MIC (E. coli JR35/c600; E. coli JR35/c600, kanamycin resistant strain, medium A: Nutrient agar): 25 µg/mL (≈ 62.9 µM)
MIC (P. mirabilis A9554): 50 µg/mL (≈ 126 µM)
PD50 (S. aureus Smith [6]): 50 mg/kg
MIC (E. coli K-12; medium A: Nutrient agar): 25 µg/mL (≈ 62.9 µM)
MIC (P. aeruginosa A9843A; P. aeruginosa A9843A, medium A: Nutrient agar): 6.3 µg/mL (≈ 15.9 µM)
MIC (S. aureus A20239; S. aureus A20239, kanamycin resistant strain, medium A: Nutrient agar): 100 µg/mL (≈ 252 µM)
PD50 (E. coli Juhl [7]; mice, i.m. just before challenge, E. coli Juhl, 5 days observation): 100 mg/kg
MIC (M. luteus PCI-1001; M. luteus PCI-1001, medium A: Nutrient agar): 50 µg/mL (≈ 126 µM)
MIC (Mycobacterium ranae; Mycobacterium ranae, medium B: No. 1001 medium): 50 µg/mL (≈ 126 µM)
MIC (M. flavus D-12; medium A: Nutrient agar): 12.5 µg/mL (≈ 31.5 µM)
MIC (B. subtilis ATCC6633): 50 µg/mL (≈ 126 µM)
MIC (Mycobacterium phlei; Mycobacterium phlei, medium B: No. 1001 medium): 25 µg/mL (≈ 62.9 µM)

[H]/N=C(/N)N[C@H]1[C@H](O)[C@@H](O)[C@H](O[C@@H]2O[C@@H](C)[C@](O)(C=O)[C@H]2O[C@@H]2O[C@@H](CO)[C@H](O)[C@@H](O)[C@@H]2NC)[C@@H](N/C(N)=N\[H])[C@@H]1O [streptomycin]
MIC (Mycobacterium 607 D46; read-out: MIC): 0.4 µg/mL (≈ 0.688 µM)
MIC (S. aureus 209P; Staphylococcus aureus, 209P): 1.6 µg/mL (≈ 2.75 µM)
MIC (P. vulgaris A9436; Proteus vulgaris, read-out: MIC): 0.4 µg/mL (≈ 0.688 µM)
MIC (K. pneumoniae D-11 [2]; Klebsiella pneumoniae, D11, medium A: Nutrient agar, read-out: MIC): 0.4 µg/mL (≈ 0.688 µM)
MIC (B. anthracis IID-115; Bacillus anthracis, IID115): 0.4 µg/mL (≈ 0.688 µM)
MIC (S. marcescens A20019; Serratia marcescens, A20019): 25 µg/mL (≈ 43 µM)
MIC (P. aeruginosa A20601; [8]): 3.1 µg/mL (≈ 5.33 µM)
MIC (K. pneumoniae A9678; Klebsiella pneumoniae, read-out: MIC): 6.3 µg/mL (≈ 10.8 µM)
ED50 (K. pneumoniae D-11 [3]; Klebsiella pneumoniae, D11, im, 120 h, read-out: PD50): 0.85 mg/kg
Growth zone vs E. coli D64, hazy growth zone (E. coli D64; 0.06 mg/ml): 14 mm
Growth zone vs E. coli D64 (E. coli D64; 0.25 mg/ml): 17 mm
Growth zone vs E. coli D64, hazy growth zone (E. coli D64; 0.25 mg/ml): 28 mm
MIC (E. coli A20664; [9]): > 100 µg/mL
MIC (E. cloacae A20364; [10]): > 100 µg/mL
zone of inhibition at 60 µg/mL (B. subtilis PCI-219; [11]): 32 mm
zone of inhibition at 250 µg/mL (B. subtilis PCI-219; [11]): 35 mm
MIC (E. coli NIHJ; [9]): 1.6 µg/mL (≈ 2.75 µM)
MIC (Mycobacterium 607 D87; Mycobacterium, 607D87): 0.4 µg/mL (≈ 0.688 µM)
MIC (S. aureus Smith [4]; Staphylococcus aureus): 1.6 µg/mL (≈ 2.75 µM)
MIC (E. cloacae A21006; [10]): > 100 µg/mL
MIC (S. marcescens A22302; Serratia marcescens, A22302): > 100 µg/mL
MIC (E. coli Juhl [5]; [9]): 3.1 µg/mL (≈ 5.33 µM)
MIC (P. aeruginosa A9930; [8]): > 100 µg/mL
MIC (E. coli JR35/c600; Escherichia coli, JR35/C600): > 100 µg/mL
MIC (P. mirabilis A9554; Proteus mirabilis, read-out: MIC): 1.6 µg/mL (≈ 2.75 µM)
ED50 (S. aureus Smith [6]; Staphylococcus aureus, im, 120 h, read-out: PD50): 1.9 mg/kg
MIC (E. coli K-12; Escherichia coli, K12, medium A: Nutrient agar, read-out: MIC): 1.6 µg/mL (≈ 2.75 µM)
MIC (P. aeruginosa A9843A; Pseudomonas aeruginosa, A9843A): > 100 µg/mL
MIC (S. aureus A20239; Staphylococcus aureus, A20239): > 100 µg/mL
ED50 (E. coli Juhl [7]; Escherichia coli, im, 120 h, read-out: PD50): 1.4 mg/kg
MIC (M. luteus PCI-1001; Micrococcus luteus, PCI1001): 3.1 µg/mL (≈ 5.33 µM)
MIC (Mycobacterium ranae; Mycobacterium): 0.4 µg/mL (≈ 0.688 µM)
MIC (M. flavus D-12; Micrococcus flavus, D12, medium A: Nutrient agar, read-out: MIC): 0.8 µg/mL (≈ 1.38 µM)
MIC (B. subtilis ATCC6633; Bacillus subtilis, read-out: MIC): 0.8 µg/mL (≈ 1.38 µM)
MIC (Mycobacterium phlei; Mycolicibacterium phlei): 0.2 µg/mL (≈ 0.344 µM)

myomycin B
Growth zone vs E. coli D64, hazy growth zone (E. coli D64; 0.25 mg/ml): 28 mm
Growth zone vs E. coli D64 (E. coli D64; 1 mg/ml): 17 mm
Growth zone vs E. coli D64, hazy growth zone (E. coli D64; 1 mg/ml): 34 mm
induction/stimulation of growth of streptomycin-dependent E. coli D64 (E. coli D64; result in words): stimulate the growth
Inhibition zone vs B. subtilis PCI-219 (B. subtilis PCI-219; 0.25 mg/ml): 29 mm
Inhibition zone vs B. subtilis PCI-219 (B. subtilis PCI-219; 1 mg/ml): 34 mm
